pIC50: −log10 of the molar value. “And” between values parts separate entries of the source, which are not always exact repeats. Equal entries are not always repeated.
What was measured:
[1] = target: T1, gastrin receptors or type-B cholecystokinin (CCK-B) receptors (Oryctolagus cuniculus, UniProt P46627); experiment: Inhibition of the gastrin-induced increase of cytosolic calcium in rabbit gastric mucous-membrane cells (Fura 2); type: cell-based; details: for Ratio IC50 Binding cortex / IC50 (gastric mucous cells): binding values taken from Table 3; for IC50, inhibition of the increase of cytosolic calcium: rabbit gastric mucous cells enriched in parietal cells, gastrin 5×10^-8
T1 construct: Rabbit gastric mucous-membrane cells were prepared by conventional techniques; endogenous in cells; host or cells: freshly isolated rabbit gastric mucosal cells, enriched by elutriation to about 70% parietal cells
T1 sequence (P46627 1-452): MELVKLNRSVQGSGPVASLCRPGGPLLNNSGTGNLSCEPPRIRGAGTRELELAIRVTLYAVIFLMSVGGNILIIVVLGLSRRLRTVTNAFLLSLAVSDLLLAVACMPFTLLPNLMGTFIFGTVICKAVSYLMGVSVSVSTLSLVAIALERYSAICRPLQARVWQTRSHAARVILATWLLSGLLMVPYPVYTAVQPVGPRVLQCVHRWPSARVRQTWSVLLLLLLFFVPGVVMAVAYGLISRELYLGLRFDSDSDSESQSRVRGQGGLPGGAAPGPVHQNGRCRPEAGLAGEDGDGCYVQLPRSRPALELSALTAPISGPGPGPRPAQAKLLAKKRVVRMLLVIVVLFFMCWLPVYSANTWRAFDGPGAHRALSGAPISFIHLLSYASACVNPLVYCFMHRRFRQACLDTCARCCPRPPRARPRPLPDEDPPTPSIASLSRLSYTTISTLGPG
Text: The parietal cells of the gastric mucous membrane are responsible for the secretion of HCl. They have specific membrane receptors which can be activated by gastrin and which have been defined as gastrin receptors or type-B cholecystokinin (CCK-B) receptors. Since it has been observed that the activation of the CCK-B receptors by gastrin leads to an increase in the cytosolic levels of calcium ions, a technique involving the measurement of the increase in intracellular calcium induced by gastrin in the presence and in the absence of the compounds of the invention was used as an index of the antigastrin activity of the compounds. Rabbit gastric mucous-membrane cells were prepared by conventional techniques with the use of collagenase and pronase as digestive enzymes. The cellular preparation obtained by the enzymatic digestion was composed of parietal cells, zymogen cells and mucous-membrane cells. […] The cells were then washed and resuspended in a saline solution buffered with HEPES containing, in mM: […] Each measurement was carried out on cells in suspension (0.8×10^6 /ml) at a thermostatically-controlled temperature of 37° C. and with constant magnetic stirring. The fluorescence was recorded with the use of a spectrofluorometer. The operative wavelengths were 340/380 nm for excitation and 505 nm for emission. […] Biol. Chem. 260 (1985), 3440]. […] The results thus obtained for some compounds of the invention are given in Table 4, which also gives an index derived from the ratio between the peripheral antigastrin activity just described and the displacement activity found in the test on binding to the guinea-pig cortex receptors described above.

[2] = system: acid secretion induced by pentagastrin; experiment: Acid secretion induced by pentagastrin in the anaesthetized rat; type: in vivo; details: for ED50: iv, 1 h, I.V. bolus, pentagastrin 30 mcg/kg/h, read-out: Activity (ID50), inhibition of the acid secretion induced by pentagastrin
Method: The activity of the compounds of the invention against gastric secretion performed by means of a mechanism with an antigastrin effect, was examined in vivo in anaesthetized rats with the use of male animals weighing about 200 g. Gastric secretion was stimulated with pentagastrin and Lai's method [Gut 5, (1964), 327-341 ] was used, with slight modification.
After tracheotomy, the oesophagus and duodenum were cannulated. A tepid solution (37° C.) of 0.25 mM NaOH was perfused and was passed through the stomach by means of a peristaltic pump at a constant flow-rate of 1 ml/minute. After stabilization for 20 minutes, the stimulant, dissolved in a physiological solution, was perfused for 120 minutes at a dose of 30 mcg/kg/h, in a volume of 0.95 ml/hour. After perfusion for 60 minutes (the basal stimulation), the product under test was administered intravenously (I.V.) as a bolus and perfusion of the stimulant was continued for a further 60 minutes. The acid secretion was recorded continuously as a function of time.
The activity of the product was evaluated as the percentage reduction of secreted acidity after the administration of the product, in comparison with the basal acidity measured during the first 60 minutes of collection in the presence of pentagastrin alone.
The antagonistic compounds tested were administered in various doses so that an ID50, that is, the dose (in mg/kg I.V.) which could inhibit the effect of pentagastrin by 50%, could be calculated.

central CCK-B receptor = target: T2, central CCK-B receptor (Cavia porcellus, UniProt H0VZC5); experiment: Inhibition of the binding of [3-H][N-methyl-N-leucine]CCK-8 to guinea-pig cortical membranes; details: guinea-pig cortical membranes; for pIC50: 150 minutes at 25° C.
T2 construct: Cerebral cortices of male white guinea-pigs were thus used; from tissue; host or cells: cerebral cortex membranes of male white guinea-pigs
T2 sequence (H0VZC5 1-426): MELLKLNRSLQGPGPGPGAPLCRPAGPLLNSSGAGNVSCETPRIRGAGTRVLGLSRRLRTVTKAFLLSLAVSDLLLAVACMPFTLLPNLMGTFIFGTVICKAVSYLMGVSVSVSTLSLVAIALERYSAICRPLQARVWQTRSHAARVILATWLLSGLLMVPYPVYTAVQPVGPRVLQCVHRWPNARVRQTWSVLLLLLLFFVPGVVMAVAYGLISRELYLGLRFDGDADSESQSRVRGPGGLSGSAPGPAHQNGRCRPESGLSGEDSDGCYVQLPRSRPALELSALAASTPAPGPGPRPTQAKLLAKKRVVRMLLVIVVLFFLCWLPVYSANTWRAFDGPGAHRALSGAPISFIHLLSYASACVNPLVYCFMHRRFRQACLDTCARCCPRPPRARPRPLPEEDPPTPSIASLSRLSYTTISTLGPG
Method: The ability of the compounds of the invention to interact with the central CCK-B receptor was evaluated with the use of non-sulphated [3-H] […] 225 (3) (1990), 1278-1286].
Cerebral cortices of male white guinea-pigs were thus used, according to the method mentioned above, so as to obtain a membrane content corresponding to about 300 mcg of proteins/ml. The membranes were incubated together with the radioactive tracer and the compounds under test for 150 minutes at 25° C. After the supernatant had been discarded, the radioactivity associated with the pellet was determined with a liquid scintillator. The specific binding was determined as the difference between the binding in the absence and in the presence of 5.10^-6 M CCK-8.

CCK-A = target: T3, CCK-A (Cavia porcellus, UniProt Q63931); experiment: Anti-CCK-A activity on guinea-pig gall bladder stimulated in vitro by CCK-8
T3 construct: A longitudinal strip of guinea-pig gall-bladder was put in a bath for isolated organs; from tissue; host or cells: guinea-pig gall bladder longitudinal strip
T3 sequence (Q63931 1-430): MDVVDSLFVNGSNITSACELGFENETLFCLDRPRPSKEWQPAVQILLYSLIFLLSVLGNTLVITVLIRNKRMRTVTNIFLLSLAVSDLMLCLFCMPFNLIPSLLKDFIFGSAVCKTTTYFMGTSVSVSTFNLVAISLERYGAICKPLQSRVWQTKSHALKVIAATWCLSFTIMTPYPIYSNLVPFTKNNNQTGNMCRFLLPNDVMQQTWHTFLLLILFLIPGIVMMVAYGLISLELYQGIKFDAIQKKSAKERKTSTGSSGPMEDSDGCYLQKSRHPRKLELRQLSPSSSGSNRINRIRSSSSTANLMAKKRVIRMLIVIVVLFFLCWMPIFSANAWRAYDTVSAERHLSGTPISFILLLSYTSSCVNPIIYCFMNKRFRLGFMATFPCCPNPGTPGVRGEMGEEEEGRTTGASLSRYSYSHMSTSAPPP
Method: The experimental model used was guinea-pig gall bladder stimulated in vitro by CCK-8, with the use of lorglumide as the reference standard. A longitudinal strip of guinea-pig gall-bladder was put in a bath for isolated organs in the presence of Krebs buffer at a temperature of 32° C., with continuous oxygenation with an oxygen-CO2 mixture (95-[…]). The isometric contractions were detected by means of a force transducer and recorded.

SMILES	Ratio IC50 Binding cortex / IC50 (gastric mucous cells) [1]	IC50, inhibition of the increase of cytosolic calcium [1] [nM]	ED50 [2]	inhibition of the binding of [N-methyl-N-leucine]CCK-8, result in words (central CCK-B receptor)	pIC50 (central CCK-B receptor)	Ratio I/II (CCK-A IC50 / CCK-B IC50) (CCK-A; gall bladder IC50 over gastric mucous cells IC50)	pIC50 (CCK-A; guinea-pig gall bladder in vitro, CCK-8 10 ng/ml, read-out: CCK-A-antagonistic activity IC50 (I))	CCK-B-antagonistic activity IC50 (II) ([1]; data taken from Table 4 (rabbit gastric mucous cells), reprinted in Table 6) [nM]	antigastrin activity relative to the diastereoisomer at the carbon atom (**) ([2]; pentagastrin-induced acid secretion)
CN(C(=O)CC[C@@H](NC(=O)c1cc(Cl)cc(Cl)c1)C(=O)N1CCC2(CCCC2)CC1)[C@H](Cc1ccccc1)C(=O)O [Compound 12]	1.7	60	13.6 mg/kg and 24.2 µmol/kg	potent inhibitors	7.00	–	–	–	–
O=C(O)CC[C@@H](NC(=O)c1cc(Cl)cc(Cl)c1)C(=O)N1CCC2(CCCC2)CC1 [CR 2194, (R)-5-(8-azaspiro[4.5]decan-8-yl)-4-(3,5-dichloro-benzoylamino)-5-oxopentanoic acid, reference compound]	6.3	380	11 mg/kg and 24.9 µmol/kg	–	–	35.5	4.87	380	–
O=C(O)C[C@H](Cc1ccccc1)NC(=O)CC[C@@H](NC(=O)c1cc(Cl)cc(Cl)c1)C(=O)N1CCC2(CCCC2)CC1 [Compound 14]	17.0	20	9.7 mg/kg and 16.1 µmol/kg	–	6.47	–	–	–	about 1.5 times
